Calls of active or inactive are those of the source.
What was measured:
[1] = molecular target: Induced myeloid leukemia cell differentiation protein Mcl-1 (Homo sapiens, UniProt Q07820); type: functional
Aminopeptidase N = molecular target: T1, Aminopeptidase N (Plasmodium falciparum FcB1/Columbia, UniProt O96935); experiment: malaria alanyl aminopeptidase activity blockers – biochemical, fluorogenic H-Leu-NHMec substrate, 1536-well (AID 1445); parameters: species or system Plasmodium falciparum 3D7, 3D7
T1 sequence (O96935 whole entry): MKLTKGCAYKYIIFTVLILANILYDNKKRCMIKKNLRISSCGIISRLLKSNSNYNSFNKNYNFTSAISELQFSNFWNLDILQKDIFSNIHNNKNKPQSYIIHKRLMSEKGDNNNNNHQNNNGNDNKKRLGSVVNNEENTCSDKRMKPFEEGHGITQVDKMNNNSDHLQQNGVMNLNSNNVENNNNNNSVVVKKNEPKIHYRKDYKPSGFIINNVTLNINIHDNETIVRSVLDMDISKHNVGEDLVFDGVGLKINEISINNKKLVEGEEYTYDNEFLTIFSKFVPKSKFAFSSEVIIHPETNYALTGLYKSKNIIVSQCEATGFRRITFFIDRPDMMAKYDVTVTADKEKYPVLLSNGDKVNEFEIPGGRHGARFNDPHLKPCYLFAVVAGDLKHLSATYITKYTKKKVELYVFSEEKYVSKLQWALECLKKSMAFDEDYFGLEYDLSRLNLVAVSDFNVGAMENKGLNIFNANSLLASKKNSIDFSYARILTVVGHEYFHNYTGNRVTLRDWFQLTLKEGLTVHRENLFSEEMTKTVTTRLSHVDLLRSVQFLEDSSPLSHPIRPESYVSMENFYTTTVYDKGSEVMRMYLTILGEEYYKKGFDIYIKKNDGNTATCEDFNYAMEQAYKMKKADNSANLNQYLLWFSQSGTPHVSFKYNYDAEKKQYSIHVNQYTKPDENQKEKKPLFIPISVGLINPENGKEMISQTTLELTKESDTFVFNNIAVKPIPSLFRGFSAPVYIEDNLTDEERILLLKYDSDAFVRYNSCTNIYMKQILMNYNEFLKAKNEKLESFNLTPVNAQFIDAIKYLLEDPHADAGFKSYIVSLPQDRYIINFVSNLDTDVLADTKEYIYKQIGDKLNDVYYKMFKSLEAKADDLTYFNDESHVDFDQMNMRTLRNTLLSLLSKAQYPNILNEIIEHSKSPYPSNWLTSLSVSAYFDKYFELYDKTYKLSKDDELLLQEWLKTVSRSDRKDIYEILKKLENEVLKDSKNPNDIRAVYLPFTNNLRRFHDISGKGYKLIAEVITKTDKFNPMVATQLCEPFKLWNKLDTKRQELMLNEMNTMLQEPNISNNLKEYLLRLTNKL

Prothrombin = Prothrombin (Bos taurus, UniProt P00735); experiment: thrombin protease inhibitors – biochemical, fluorescence polarization, uHTS hits, dose response (AID 602369); type: functional
[2] = molecular target: DNA (cytosine-5)-methyltransferase 1 (Homo sapiens, UniProt P26358); experiment: inhibition of DNA methylation by DNMT1 – biochemical, fluorescent molecular beacon, confirmation (AID 602386); type: functional
DNA (cytosine-5)-methyltransferase 1, sequence (P26358 whole entry): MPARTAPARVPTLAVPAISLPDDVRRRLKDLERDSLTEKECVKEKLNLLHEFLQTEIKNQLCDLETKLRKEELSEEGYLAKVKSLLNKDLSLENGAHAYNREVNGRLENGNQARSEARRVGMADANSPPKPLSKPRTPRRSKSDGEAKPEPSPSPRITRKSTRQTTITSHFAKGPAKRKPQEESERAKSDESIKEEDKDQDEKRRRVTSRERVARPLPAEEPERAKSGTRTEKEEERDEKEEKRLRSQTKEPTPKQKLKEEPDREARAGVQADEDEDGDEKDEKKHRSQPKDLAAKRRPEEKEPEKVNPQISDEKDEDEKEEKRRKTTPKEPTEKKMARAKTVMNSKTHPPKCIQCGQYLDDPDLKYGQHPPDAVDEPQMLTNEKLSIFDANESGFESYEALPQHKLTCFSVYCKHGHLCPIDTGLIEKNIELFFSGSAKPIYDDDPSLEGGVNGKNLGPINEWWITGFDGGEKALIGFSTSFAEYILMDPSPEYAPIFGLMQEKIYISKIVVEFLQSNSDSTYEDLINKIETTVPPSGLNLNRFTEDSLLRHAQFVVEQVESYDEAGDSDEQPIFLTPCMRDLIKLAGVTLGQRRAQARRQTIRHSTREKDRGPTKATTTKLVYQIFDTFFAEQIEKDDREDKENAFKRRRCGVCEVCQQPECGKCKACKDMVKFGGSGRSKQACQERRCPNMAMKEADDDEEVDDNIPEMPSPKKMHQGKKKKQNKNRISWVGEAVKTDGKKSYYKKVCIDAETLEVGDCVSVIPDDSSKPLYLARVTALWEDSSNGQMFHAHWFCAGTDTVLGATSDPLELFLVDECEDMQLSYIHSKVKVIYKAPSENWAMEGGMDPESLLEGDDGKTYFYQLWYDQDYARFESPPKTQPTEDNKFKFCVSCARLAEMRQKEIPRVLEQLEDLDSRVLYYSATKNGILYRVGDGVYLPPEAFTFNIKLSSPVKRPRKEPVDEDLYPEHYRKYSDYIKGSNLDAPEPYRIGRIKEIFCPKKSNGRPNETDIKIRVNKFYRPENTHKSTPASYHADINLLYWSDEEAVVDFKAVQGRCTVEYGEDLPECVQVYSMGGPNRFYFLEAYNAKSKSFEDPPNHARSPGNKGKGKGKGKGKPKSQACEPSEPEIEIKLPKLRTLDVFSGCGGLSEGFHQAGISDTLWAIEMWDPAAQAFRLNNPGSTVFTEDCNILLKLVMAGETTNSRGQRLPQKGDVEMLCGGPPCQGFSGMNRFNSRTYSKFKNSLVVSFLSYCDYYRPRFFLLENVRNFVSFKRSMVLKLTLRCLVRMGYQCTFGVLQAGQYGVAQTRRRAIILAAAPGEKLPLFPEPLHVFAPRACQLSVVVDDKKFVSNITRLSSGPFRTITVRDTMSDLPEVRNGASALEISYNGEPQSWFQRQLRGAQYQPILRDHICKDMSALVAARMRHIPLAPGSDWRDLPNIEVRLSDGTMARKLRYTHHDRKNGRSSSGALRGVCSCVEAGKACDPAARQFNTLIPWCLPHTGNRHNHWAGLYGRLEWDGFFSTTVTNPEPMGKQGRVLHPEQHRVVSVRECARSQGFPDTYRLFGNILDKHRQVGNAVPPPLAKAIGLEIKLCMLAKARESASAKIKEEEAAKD

[3] = molecular target: T2, Histone-lysine N-methyltransferase NSD2 (Homo sapiens, UniProt O96028); type: biochemical
T2 sequence (O96028 whole entry): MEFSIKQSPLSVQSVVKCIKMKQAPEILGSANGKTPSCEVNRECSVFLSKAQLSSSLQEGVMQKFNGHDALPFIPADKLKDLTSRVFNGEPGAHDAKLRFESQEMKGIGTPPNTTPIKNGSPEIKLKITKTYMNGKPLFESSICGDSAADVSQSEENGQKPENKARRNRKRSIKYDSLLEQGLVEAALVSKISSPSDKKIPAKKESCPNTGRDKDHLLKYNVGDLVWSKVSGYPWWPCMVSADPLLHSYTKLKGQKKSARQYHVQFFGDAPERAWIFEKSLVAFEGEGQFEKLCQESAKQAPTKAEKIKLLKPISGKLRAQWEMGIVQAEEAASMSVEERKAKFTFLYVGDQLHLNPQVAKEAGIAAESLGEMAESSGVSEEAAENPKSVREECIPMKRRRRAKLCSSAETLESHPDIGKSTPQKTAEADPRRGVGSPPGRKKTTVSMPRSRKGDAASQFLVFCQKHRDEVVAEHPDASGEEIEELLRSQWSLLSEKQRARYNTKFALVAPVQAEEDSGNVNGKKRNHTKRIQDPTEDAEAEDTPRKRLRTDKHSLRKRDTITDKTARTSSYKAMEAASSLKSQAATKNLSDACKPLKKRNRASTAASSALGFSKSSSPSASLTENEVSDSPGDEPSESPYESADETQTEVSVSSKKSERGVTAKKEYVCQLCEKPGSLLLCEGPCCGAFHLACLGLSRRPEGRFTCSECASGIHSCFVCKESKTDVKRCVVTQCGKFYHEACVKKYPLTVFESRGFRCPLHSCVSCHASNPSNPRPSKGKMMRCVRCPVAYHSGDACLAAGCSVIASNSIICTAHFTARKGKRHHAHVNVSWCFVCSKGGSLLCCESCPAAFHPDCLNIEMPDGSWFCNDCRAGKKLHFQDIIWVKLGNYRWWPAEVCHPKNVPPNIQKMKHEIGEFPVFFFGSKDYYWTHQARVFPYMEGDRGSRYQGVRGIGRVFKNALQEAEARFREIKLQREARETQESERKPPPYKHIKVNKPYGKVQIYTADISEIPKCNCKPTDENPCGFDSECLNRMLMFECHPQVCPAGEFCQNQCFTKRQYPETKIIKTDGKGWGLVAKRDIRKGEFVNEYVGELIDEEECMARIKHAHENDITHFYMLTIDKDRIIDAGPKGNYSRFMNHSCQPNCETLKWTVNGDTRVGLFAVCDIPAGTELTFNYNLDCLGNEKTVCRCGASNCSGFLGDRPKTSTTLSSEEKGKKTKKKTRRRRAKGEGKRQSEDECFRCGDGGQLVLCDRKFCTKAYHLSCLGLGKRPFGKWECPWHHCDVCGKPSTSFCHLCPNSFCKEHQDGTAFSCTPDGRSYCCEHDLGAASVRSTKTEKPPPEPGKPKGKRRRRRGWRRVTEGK

[4] = antiviral protection against BTV-induced cell death – arbovirus, BSR cells, confirmation (AID 1250); type: functional;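 note: protection from viral cytopathic effect measured as cell viability by ATP luminescence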
[5] = molecular target: 72 kDa type IV collagenase (Homo sapiens, UniProt P08253); experiment: Dose Response validation of uHTS RPN11 inhibitor hits using a MMP-2 Fluorescence assay.; type: functional
72 kDa type IV collagenase, sequence (P08253 whole entry): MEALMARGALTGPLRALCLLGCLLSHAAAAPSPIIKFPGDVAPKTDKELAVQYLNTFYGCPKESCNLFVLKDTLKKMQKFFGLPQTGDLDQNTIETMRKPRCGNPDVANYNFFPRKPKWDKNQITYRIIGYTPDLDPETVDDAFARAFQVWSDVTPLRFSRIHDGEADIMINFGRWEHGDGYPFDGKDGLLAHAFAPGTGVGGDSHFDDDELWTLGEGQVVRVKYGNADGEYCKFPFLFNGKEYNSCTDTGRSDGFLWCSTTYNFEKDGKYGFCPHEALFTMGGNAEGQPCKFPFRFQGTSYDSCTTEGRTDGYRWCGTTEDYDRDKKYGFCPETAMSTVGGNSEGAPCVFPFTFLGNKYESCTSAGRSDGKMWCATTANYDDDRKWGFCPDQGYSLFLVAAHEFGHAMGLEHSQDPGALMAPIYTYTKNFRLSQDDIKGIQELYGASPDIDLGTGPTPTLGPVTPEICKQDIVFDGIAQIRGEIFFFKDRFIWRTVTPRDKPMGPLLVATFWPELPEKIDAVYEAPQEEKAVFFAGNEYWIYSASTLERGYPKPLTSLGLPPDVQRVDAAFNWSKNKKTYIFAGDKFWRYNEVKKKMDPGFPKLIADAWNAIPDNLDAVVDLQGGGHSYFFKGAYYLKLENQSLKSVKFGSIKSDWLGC

[6] = molecular target: 26S proteasome non-ATPase regulatory subunit 14 (Homo sapiens, UniProt O00487); experiment: inhibition of proteasome subunit RPN11 – biochemical, fluorescence polarization, uHTS hits, confirmation (AID 602368); type: functional
26S proteasome non-ATPase regulatory subunit 14, sequence (O00487 whole entry): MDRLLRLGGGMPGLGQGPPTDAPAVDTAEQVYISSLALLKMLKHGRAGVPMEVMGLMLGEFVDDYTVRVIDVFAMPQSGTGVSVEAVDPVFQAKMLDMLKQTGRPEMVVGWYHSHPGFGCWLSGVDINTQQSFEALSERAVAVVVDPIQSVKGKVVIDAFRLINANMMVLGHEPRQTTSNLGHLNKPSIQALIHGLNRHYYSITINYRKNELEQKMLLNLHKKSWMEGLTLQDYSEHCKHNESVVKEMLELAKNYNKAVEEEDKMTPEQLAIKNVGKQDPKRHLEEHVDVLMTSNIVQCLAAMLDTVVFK

Bcl-2-like protein 10 [7] = molecular target: T3, Bcl-2-like protein 10 (Homo sapiens, UniProt Q9HD36); experiment: Concentration-response of Bcl-B inhibitors by biochemical FP with TR3 (AID 1243); type: functional
T3 sequence (Q9HD36 whole entry): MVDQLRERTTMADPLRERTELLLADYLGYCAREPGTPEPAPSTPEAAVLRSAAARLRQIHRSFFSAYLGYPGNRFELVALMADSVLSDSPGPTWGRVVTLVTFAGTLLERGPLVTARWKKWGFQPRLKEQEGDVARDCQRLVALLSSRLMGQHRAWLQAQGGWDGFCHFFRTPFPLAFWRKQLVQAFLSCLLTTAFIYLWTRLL

Oxytocin receptor = Oxytocin receptor (Homo sapiens, UniProt P30559); experiment: Counterscreen for vasopressin 1 receptor (V1R) agonists: Fluorescence-based cell-based high throughput dose response assay for agonists of the Oxytocin Receptor (OXTR). [Related pubchem assays: 2435 (Primary screen (OXTR agonists in singlicate)), 434964 (Confirmation screen (V1R agonists in triplicate)), 434969 (Counterscreen (OXTR agonists in …; type: functional
Oxytocin receptor, sequence (P30559 whole entry): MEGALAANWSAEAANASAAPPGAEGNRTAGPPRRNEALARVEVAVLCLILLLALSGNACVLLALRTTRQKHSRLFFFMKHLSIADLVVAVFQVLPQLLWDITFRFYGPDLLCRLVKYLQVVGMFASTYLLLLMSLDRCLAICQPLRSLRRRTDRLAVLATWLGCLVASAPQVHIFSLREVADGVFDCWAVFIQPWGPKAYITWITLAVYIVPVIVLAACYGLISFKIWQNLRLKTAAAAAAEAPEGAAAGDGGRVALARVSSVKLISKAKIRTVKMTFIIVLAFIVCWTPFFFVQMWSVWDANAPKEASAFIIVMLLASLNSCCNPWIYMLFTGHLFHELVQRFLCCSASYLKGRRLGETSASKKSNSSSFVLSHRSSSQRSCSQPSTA

Insulin-degrading enzyme = molecular target: T4, Insulin-degrading enzyme (Homo sapiens, UniProt P14735); experiment: Dose Response: Fluorescence polarization-based cell-based high throughput dose response assay for inhibitors of insulin-degrading enzyme (IDE). [Related pubchem assays: 434962 (Primary screen (IDE inhibitors in singlicate)), 449730 (Counterscreen (Cytotoxicity in triplicate)), 435028 (Confirmation (IDE inhibitors in triplicate)), 434984 (Summary …; type: functional
T4 sequence (P14735 whole entry): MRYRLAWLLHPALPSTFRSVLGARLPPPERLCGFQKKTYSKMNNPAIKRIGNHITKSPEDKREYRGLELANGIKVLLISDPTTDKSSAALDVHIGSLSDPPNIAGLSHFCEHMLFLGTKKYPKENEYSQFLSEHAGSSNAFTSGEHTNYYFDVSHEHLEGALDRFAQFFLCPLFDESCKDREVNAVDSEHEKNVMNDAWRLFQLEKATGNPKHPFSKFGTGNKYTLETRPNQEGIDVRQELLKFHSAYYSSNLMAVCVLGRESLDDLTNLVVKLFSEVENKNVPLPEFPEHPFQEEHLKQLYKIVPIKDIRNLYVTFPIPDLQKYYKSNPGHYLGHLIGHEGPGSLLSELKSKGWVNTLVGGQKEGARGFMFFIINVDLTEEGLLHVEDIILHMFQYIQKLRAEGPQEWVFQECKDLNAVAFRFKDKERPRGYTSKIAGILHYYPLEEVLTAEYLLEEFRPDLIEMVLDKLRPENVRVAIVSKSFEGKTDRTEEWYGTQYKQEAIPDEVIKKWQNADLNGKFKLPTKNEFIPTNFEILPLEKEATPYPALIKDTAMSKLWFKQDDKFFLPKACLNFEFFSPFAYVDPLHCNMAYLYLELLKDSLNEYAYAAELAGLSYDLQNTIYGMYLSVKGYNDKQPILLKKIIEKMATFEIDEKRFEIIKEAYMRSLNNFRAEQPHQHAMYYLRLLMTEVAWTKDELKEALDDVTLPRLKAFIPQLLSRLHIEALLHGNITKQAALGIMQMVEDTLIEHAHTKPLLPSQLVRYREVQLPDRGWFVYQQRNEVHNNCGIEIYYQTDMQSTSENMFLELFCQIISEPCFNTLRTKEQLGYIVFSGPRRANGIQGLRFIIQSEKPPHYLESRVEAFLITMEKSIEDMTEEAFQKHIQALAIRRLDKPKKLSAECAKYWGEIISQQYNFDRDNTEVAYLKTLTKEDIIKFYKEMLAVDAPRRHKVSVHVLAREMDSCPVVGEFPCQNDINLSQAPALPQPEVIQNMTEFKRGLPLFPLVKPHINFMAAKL

Vasopressin V1a receptor = Vasopressin V1a receptor (Homo sapiens, UniProt P37288); experiment: Fluorescence-based cell-based high throughput dose response screening assay for agonists of the vasopressin 1 receptor (V1R).; type: functional
Vasopressin V1a receptor, sequence (P37288 whole entry): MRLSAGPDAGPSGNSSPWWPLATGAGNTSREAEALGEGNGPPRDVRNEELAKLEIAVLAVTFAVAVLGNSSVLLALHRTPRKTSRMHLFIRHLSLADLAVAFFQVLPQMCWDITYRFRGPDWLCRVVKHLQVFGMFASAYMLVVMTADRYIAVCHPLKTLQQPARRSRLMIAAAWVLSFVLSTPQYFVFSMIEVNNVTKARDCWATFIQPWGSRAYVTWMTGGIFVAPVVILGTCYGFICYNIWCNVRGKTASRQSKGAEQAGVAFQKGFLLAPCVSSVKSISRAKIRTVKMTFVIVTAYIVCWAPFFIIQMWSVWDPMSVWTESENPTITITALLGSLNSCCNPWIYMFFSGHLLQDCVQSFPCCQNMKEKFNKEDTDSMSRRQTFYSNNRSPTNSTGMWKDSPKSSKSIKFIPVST

[8] = Counterscreen for IDE inhibitors: Luminescence-based cell-based high throughput dose response assay to identify compounds that are cytotoxic to HEK cells. [Related pubchem assays: 434962 (Primary screen (IDE inhibitors in singlicate)), 449730 (Counterscreen (Cytotoxicity in triplicate)), 435028 (Confirmation (IDE inhibitors in triplicate)) …; type: functional; conditions: HEK293
Estrogen receptor = molecular target: T5, Estrogen receptor (Homo sapiens, UniProt P03372);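 note: potency for inhibiting coactivator peptide recruitment to the receptor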
T5 sequence (P03372 whole entry): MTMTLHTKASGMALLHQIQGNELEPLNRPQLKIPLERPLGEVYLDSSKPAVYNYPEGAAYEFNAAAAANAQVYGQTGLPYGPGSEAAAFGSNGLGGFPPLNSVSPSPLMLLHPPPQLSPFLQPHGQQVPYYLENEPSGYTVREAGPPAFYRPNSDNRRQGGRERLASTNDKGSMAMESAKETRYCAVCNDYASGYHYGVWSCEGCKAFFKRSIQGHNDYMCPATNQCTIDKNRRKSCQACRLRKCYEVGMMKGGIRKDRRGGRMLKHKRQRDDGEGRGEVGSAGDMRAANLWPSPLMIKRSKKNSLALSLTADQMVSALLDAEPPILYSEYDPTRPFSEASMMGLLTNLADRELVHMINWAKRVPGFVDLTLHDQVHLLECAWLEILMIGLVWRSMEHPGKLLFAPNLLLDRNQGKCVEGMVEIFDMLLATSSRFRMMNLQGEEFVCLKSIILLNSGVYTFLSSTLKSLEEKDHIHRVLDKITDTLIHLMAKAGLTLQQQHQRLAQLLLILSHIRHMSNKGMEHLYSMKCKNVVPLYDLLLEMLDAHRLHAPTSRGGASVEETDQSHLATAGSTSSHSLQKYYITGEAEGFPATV

Bcl-2-like protein 10 [9] = molecular target: T3, Bcl-2-like protein 10; experiment: Bcl-B/TR3 peptide binding disruption – biochemical, fluorescence polarization, FITC-TR3 peptide, selectivity assay for Bfl-1 inhibitor project, primary screen (AID 748);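 note: fluorescence polarization from a fluorescein-labelled TR3 peptide binding purified Bcl-B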
[10] = molecular target: Epstein-Barr nuclear antigen 1 (Epstein-Barr virus (strain B95-8) (HHV-4) (Human herpesvirus 4), UniProt P03211); experiment: inhibition of EBV nuclear antigen 1 DNA binding – biochemical, fluorescence polarization, 1536-well, dose response (AID 2381); parameters: species or system human gammaherpesvirus 4;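 note: fluorescence polarization of a Cy5 DNA probe bound by EBNA-1 protein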
Epstein-Barr nuclear antigen 1, sequence (P03211 whole entry): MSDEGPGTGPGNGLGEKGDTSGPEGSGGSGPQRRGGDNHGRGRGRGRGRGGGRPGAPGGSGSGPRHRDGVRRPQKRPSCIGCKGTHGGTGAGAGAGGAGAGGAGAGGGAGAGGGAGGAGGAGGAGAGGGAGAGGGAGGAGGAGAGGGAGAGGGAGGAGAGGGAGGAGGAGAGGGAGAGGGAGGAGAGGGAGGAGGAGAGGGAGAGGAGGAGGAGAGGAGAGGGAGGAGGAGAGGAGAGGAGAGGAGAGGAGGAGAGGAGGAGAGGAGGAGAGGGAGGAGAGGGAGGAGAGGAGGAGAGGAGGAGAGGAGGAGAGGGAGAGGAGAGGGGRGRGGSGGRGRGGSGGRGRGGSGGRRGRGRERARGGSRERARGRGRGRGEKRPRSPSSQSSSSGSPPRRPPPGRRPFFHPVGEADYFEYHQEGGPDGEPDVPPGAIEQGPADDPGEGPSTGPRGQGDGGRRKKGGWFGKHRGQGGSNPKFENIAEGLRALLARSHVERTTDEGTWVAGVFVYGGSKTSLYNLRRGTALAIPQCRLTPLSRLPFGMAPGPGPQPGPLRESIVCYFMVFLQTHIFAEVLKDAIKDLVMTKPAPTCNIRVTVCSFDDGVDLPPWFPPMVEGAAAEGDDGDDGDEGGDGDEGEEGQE

[11] = molecular target: Lytic switch protein BZLF1 (Epstein-Barr virus (strain B95-8) (HHV-4) (Human herpesvirus 4), UniProt P03206); experiment: inhibition of BZLF1 ZTA DNA binding – biochemical, fluorescence polarization, Epstein-Barr virus, 1536-well, counter-screen for EBNA-1 inhibitor project, dose response (AID 2377); parameters: species or system human gammaherpesvirus 4;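 note: fluorescence polarization of Cy5-labelled ZRE DNA probe bound by purified Zta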
Lytic switch protein BZLF1, sequence (P03206 whole entry): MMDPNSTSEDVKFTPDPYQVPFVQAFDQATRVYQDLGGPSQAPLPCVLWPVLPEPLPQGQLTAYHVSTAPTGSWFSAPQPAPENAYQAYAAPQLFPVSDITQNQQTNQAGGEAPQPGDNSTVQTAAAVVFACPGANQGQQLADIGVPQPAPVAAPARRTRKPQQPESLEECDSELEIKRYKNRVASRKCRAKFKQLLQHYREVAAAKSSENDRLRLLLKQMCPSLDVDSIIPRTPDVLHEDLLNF

Induced myeloid leukemia cell differentiation protein Mcl-1, sequence (Q07820 whole entry): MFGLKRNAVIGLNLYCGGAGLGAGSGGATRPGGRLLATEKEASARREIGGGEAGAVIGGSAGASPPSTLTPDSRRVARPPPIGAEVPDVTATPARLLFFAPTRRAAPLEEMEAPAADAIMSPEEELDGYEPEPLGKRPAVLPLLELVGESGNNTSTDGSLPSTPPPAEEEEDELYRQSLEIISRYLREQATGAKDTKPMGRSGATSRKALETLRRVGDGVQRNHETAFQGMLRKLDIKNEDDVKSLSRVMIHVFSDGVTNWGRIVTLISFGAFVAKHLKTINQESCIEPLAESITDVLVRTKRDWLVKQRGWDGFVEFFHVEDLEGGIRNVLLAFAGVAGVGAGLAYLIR

Cc1ccc(-n2cccc2/C=C2/C(=N)N3C(=NC2=O)SN=C3S(C)(=O)=O)cc1Cl
IC50 [1]: 1.86 µM (active) | IC50 (Aminopeptidase N): 15 µM (active) | IC50 (Prothrombin): 21.1 µM (active) | IC50 [2]: 7.72 µM (active) | AC50 [3]: 8.75 µM (active) | IC50 [4]: 28.9 µM (active) | IC50 [5]: > 100 µM (inactive) | IC50 [6]: 13.4 µM (active)

O=C1NN(c2ccc(F)c(Cl)c2)C(=O)/C1=C\c1ccco1
EC50 (Bcl-2-like protein 10 [7]): 33.4 µM (active)

CC(OC(=O)/C(C#N)=C/c1ccc(N(C)C)cc1)C(=O)N(C)Cc1ccccc1 (configuration not stated)
EC50 (Oxytocin receptor): > 9.97 µM (active) | IC50 (Insulin-degrading enzyme): 12.8 µM (not active) | EC50 (Vasopressin V1a receptor): > 3.32 µM (active) | IC50 [8]: 16.5 µM (not active)

CCOC(=O)C1=C(C)S/C(=C\N(C)C)C1=O
IC50 (Estrogen receptor): 40.3 µM (not active) | IC50 (Bcl-2-like protein 10 [9]): 37.8 µM (active)

O=C(CSc1nc2ccc(NC(=O)CSc3nnnn3-c3ccccc3)cc2s1)Nc1ccccc1
IC50 [10]: 12 µM (not active) | IC50 [11]: > 111 µM (not active)
